Measured values published in patent US20150335016A1, “Herbicidal Composition Comprising a Cornexistin” (BASF SE, priority 2012, published 2015).

Tests used:
Assay in all cases: Greenhouse post-emergence herbicidal test
Assay type in all cases: in vivo
[1] = system: COMBE (Commelina benghalensis)
Procedure: (§1) The culture containers used were plastic pots containing loamy sand with approximately 2-3.0% of organic matter. The seeds of the test plants were sown separately for each species.
(§2) For the post-emergence treatment, the test plants were grown to a plant height of from 3 to 15 cm, depending on the plant habit, and only then treated with the active compounds which had been suspended or emulsified in water. To this end, the test plants were either sown directly, and grown in the same containers, or they were first grown separately as seedlings and transplanted into the test containers a few days prior to treatment.
(§3) Depending on the species, the plants were kept at 10-25° C. and 20-35° C., respectively.
(§4) The test period extended over 2 to 4 weeks. During this time, the plants were tended and their response to the individual treatments was evaluated.
(§5) Evaluation was carried out using a scale from 0 to 100. 100 means no emergence of the plants, or complete destruction of at least the above-ground parts, and 0 means no damage or normal course of growth. A good herbicidal activity is given at values of at least 70, and very good herbicidal activity is given at values of at least 85.
(§6) In the examples below, using the method of S. R. Colby (1967) “Calculating synergistic and antagonistic responses of herbicide combinations”, Weeds 15, p. 22ff., the value E, which is expected if the activity of the individual active compounds is only additive, was calculated.
(§7) where • X=percent activity using active compound A at an application rate a; • Y=percent activity using active compound B at an application rate b; • E=expected activity (in %) by A+B at application rates a+b.
(§8) If the value found experimentally is higher than the value E calculated according to Colby, a synergistic effect is present.
(§9) For preparation of the mixtures herbicides A were used in form of an aqueous solution comprising 22.5% by weight of the respective herbicide A. The herbicides B were used in form of the respective commercially available formulations as identified below. If appropriate, the adjuvant DASH® HC was added to the mixtures.
(§10) The respective mixtures of active ingredients were introduced into the spray liquor used for applying the active compound. In the examples, the solvent used was water.

[2] = system: BRAPP (Urochloa platyphylla)
Procedure: as §1, §2, §3, §4, §5, §6, §7, §8, §9, §10

[3] = system: SETFA (Setaria faberi)
Procedure: as §1, §2, §3, §4, §5, §6, §7, §8, §9, §10

[4] = system: DIGSA (Digitaria sanguinales)
Procedure: as §1, §2, §3, §4, §5, §6, §7, §8, §9, §10

[5] = system: AMBEL (Ambrosia artemisiifolia)
Procedure: as §1, §2, §3, §4, §5, §6, §7, §8, §9, §10

[6] = system: ABUTH (Abutilon theophrasti)
Procedure: as §1, §2, §3, §4, §5, §6, §7, §8, §9, §10

[7] = system: CHEAL (Chenopodium album)
Procedure: as §1, §2, §3, §4, §5, §6, §7, §8, §9, §10

[8] = system: PANMI (Panicum miliaceum L.)
Procedure: as §1, §2, §3, §4, §5, §6, §7, §8, §9, §10

[9] = system: ERICA (Erigeron canadensis)
Procedure: as §1, §2, §3, §4, §5, §6, §7, §8, §9, §10

[10] = system: AMARE (Amaranthus retroflexus)
Procedure: as §1, §2, §3, §4, §5, §6, §7, §8, §9, §10

[11] = system: POLPE (Polygonum persicaria)
Procedure: as §1, §2, §3, §4, §5, §6, §7, §8, §9, §10

[12] = Example 4, post-emergence, B.30 12.5 g/ha a.i.
[13] = Example 2, post-emergence; a1) 62.5 g/ha a.i.
[14] = Example 4, post-emergence; a1) 125 g/ha a.i.
[15] = Example 1, post-emergence; a1) 125 g/ha a.i.
[16] = Example 5, post-emergence; a1) 31.25 g/ha a.i.
[17] = Example 5, post-emergence, B.55 2.5 g/ha a.i.
[18] = Example 2, post-emergence, B.49 75 g/ha a.i.
[19] = Example 1, post-emergence, B.17 62.5 g/ha a.i.

Cn1nc(C(F)(F)F)c(CS(=O)(=O)C2=NOC(C)(C)C2)c1OC(F)F [B.30, pyroxasulfone]
herbicidal activity against COMBE found [1, 12]: 45%
herbicidal activity against BRAPP found [2, 12]: 50%
herbicidal activity against SETFA found [3, 12]: 40%

C/C=C1/CC2=C(C(=O)OC2=O)[C@H](CCC)[C@H](O)C(=O)C[C@@H]1O [a1), cornexistin]
herbicidal activity against DIGSA found [4, 13]: 55%
herbicidal activity against COMBE found [1, 14]: 55%
herbicidal activity against AMBEL found [5, 15]: 65%
herbicidal activity against AMBEL found [5, 16]: 80%
herbicidal activity against ABUTH found [6, 15]: 50%
herbicidal activity against CHEAL found [7, 13]: 90%
herbicidal activity against CHEAL found [7, 16]: 70%
herbicidal activity against PANMI found [8, 13]: 80%
herbicidal activity against BRAPP found [2, 14]: 50%
herbicidal activity against ERICA found [9, 15]: 40%
herbicidal activity against ERICA found ([9]; Example 3, post-emergence, heading: +1% by weight DASH HC; a1) 62.5 g/ha a.i.): 60%
herbicidal activity against SETFA found [3, 14]: 80%
herbicidal activity against AMARE found [10, 13]: 50%
herbicidal activity against POLPE found [11, 15]: 60%

COC(=O)c1ccccc1S(=O)(=O)NC(=O)Nc1nc(C)nc(OC)n1 [B.55, metsulfuron-methyl]
herbicidal activity against AMBEL found [5, 17]: 75%
herbicidal activity against CHEAL found [7, 17]: 40%

CCc1cccc(CC)c1N(COC)C(=O)CCl [B.49, alachlor]
herbicidal activity against DIGSA found [4, 18]: 40%
herbicidal activity against CHEAL found [7, 18]: 0%
herbicidal activity against PANMI found [8, 18]: 45%
herbicidal activity against AMARE found [10, 18]: 30%

COCc1cnc(C2=NC(C)(C(C)C)C(=O)N2)c(C(=O)O)c1 (stereo not shown) [B.3, imazamox]
herbicidal activity against ERICA found ([9]; Example 3, post-emergence, heading: +1% by weight DASH HC, B.3 9 g/ha a.i.): 90%

CC(C)N1C(=O)c2ccccc2NS1(=O)=O [B.17, bentazone]
herbicidal activity against AMBEL found [5, 19]: 30%
herbicidal activity against ABUTH found [6, 19]: 40%
herbicidal activity against ERICA found [9, 19]: 70%
herbicidal activity against POLPE found [11, 19]: 55%
